In PubChem BioAssay (NCI):
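Exposure lasted 48 hours, with cells grown in 96-well plates and compounds tested at five concentrations. GI50 = concentration required for 50% inhibition of growth. TGI: total growth inhibition.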

Legend:
Assay in all cases: NCI tumour cell line growth inhibition, 48 h
[1] = test system: SK-OV-3 ovarian
[2] = test system: ACHN renal
[3] = test system: UO-31 renal
[4] = test system: NCI-H226 lung
[5] = test system: SW-620 colon
[6] = test system: UACC-257 melanoma
[7] = test system: MALME-3M melanoma
[8] = test system: SF-539 CNS
[9] = test system: SK-MEL-5 melanoma
[10] = test system: SR leukemia

C/C=C1\C(=O)OC2CCN3CCC(COC(=O)C(C)(O)C(C)C1O)C23 (stereo unspecified)
TGI [1]: > 100 µM
TGI [2]: > 100 µM
TGI [3]: > 100 µM
TGI [4]: > 100 µM
TGI [5]: > 100 µM
TGI [6]: > 100 µM
TGI [7]: > 100 µM
TGI [8]: > 100 µM
TGI [9]: > 100 µM

CNC(=O)CN(CC(N)=O)C(N)=O
TGI [1]: > 100 µM
TGI [2]: > 100 µM
TGI [3]: > 100 µM
TGI [4]: > 100 µM
TGI [5]: > 100 µM
TGI [7]: > 100 µM
TGI [8]: > 100 µM
TGI [10]: > 100 µM
TGI [9]: > 100 µM

O=C1C=CC2(C=C1)C[C@H](NC(=O)C(F)(F)F)C(=O)O2
TGI [1]: > 100 µM
TGI [2]: > 100 µM
TGI [3]: > 100 µM
TGI [4]: > 100 µM
TGI [6]: > 100 µM
TGI [7]: 40.3 µM
TGI [8]: > 100 µM
TGI [10]: > 100 µM
TGI [9]: > 100 µM

CC1(C)CC[C@]2(C(N)=O)CC[C@]3(C)C(=CC[C@@H]4[C@@]5(C)C/C(=C/c6ccncc6)C(=O)C(C)(C)[C@@H]5CC[C@]43C)[C@@H]2C1
GI50 [1]: 3.13 µM
TGI [1]: 11.9 µM
GI50 [2]: 2020 nM
TGI [2]: 4.33 µM
GI50 [3]: 1480 nM
TGI [3]: 2.91 µM
GI50 [5]: 2040 nM
TGI [5]: 4.62 µM
GI50 [6]: 2320 nM
TGI [6]: 6.68 µM
GI50 [7]: 1710 nM
TGI [7]: 3.27 µM
GI50 [8]: 1810 nM
TGI [8]: 3.34 µM
GI50 [10]: 2.18 µM
TGI [10]: 6.5 µM
GI50 [9]: 1.77 µM
TGI [9]: 3.27 µM

CCOP(=O)(Nc1ccc2oc(=O)c3ccccc3c2c1)OCC
TGI [2]: > 100 µM
TGI [4]: > 100 µM
TGI [5]: > 100 µM
TGI [6]: > 100 µM
TGI [7]: > 100 µM
TGI [8]: > 100 µM
TGI [10]: > 100 µM
TGI [9]: > 100 µM

CSc1ccc(C(=O)C(=O)c2ccc(SC)s2)s1
TGI [1]: > 10 µM
TGI [2]: > 10 µM
TGI [3]: > 10 µM
TGI [4]: > 10 µM
TGI [5]: > 10 µM
TGI [6]: > 10 µM
TGI [8]: > 10 µM
TGI [10]: > 10 µM
TGI [9]: > 10 µM

CCCCCCCCCCCCCc1nn[nH]n1
TGI [1]: 47.3 µM
TGI [2]: 42.2 µM
TGI [3]: 29.5 µM
TGI [4]: 45.5 µM
TGI [5]: 41.4 µM
TGI [6]: 35.9 µM
TGI [7]: 33.5 µM
TGI [8]: 32.2 µM
TGI [9]: 32.5 µM

CCOC(=O)C1COc2cc(-c3cc(=O)c4ccccc4o3)ccc2O1 (stereo unspecified)
TGI [1]: > 100 µM
TGI [2]: > 100 µM
TGI [3]: 76.8 µM
TGI [5]: > 100 µM
TGI [7]: > 100 µM
TGI [8]: 96.3 µM
TGI [10]: > 100 µM
TGI [9]: > 100 µM

COC(OC)c1cc2c(cc1C(=O)[C@@]13CCC[C@@H]1NC(=O)O3)OCO2
TGI [1]: > 100 µM
TGI [2]: > 100 µM
TGI [3]: > 100 µM
TGI [4]: > 100 µM
TGI [5]: > 100 µM
TGI [6]: > 100 µM
TGI [7]: > 100 µM
TGI [8]: > 100 µM
TGI [9]: > 100 µM

COc1cccc(C2NC(=S)NC(C)=C2C(=O)Nc2ccc(Cl)c(Cl)c2)c1 (stereo unspecified)
GI50 [1]: 21.3 µM
TGI [1]: > 50 µM
GI50 [2]: 10100 nM
TGI [2]: 23.2 µM
GI50 [3]: 9100 nM
TGI [3]: 17.9 µM
GI50 [4]: 12.1 µM
TGI [4]: 30.7 µM
GI50 [5]: 22300 nM
TGI [5]: > 50 µM
GI50 [6]: 12400 nM
TGI [6]: 28.9 µM
GI50 [10]: 42.6 µM
TGI [10]: > 50 µM
GI50 [9]: 8.43 µM
TGI [9]: 16.1 µM

COC(=O)CC(C(C(C)=O)C(=O)OCc1ccccc1)N1C(=O)OCC1c1ccccc1 (stereo unspecified)
TGI [2]: > 100 µM
TGI [3]: > 100 µM
TGI [4]: > 100 µM
TGI [5]: > 100 µM
TGI [6]: > 100 µM
TGI [7]: > 100 µM
TGI [8]: > 100 µM
TGI [10]: > 100 µM
TGI [9]: > 100 µM

COc1ccccc1NC(=O)C(CC(C(=O)Nc1ccccc1OC)/C(C)=N/Nc1ccc([N+](=O)[O-])cc1[N+](=O)[O-])/C(C)=N/Nc1ccc([N+](=O)[O-])cc1[N+](=O)[O-] (stereo unspecified)
TGI [1]: > 100 µM
TGI [2]: > 100 µM
TGI [3]: > 100 µM
TGI [4]: > 100 µM
TGI [5]: > 100 µM
TGI [6]: > 100 µM
TGI [7]: > 100 µM
TGI [8]: > 100 µM
TGI [9]: > 100 µM

COc1ccc(OC)c2c3c(ccc12)C(c1ccccc1)OC3=O (stereo unspecified)
TGI [1]: > 100 µM
TGI [2]: > 100 µM
TGI [3]: > 100 µM
TGI [4]: > 100 µM
TGI [5]: > 100 µM
TGI [6]: > 100 µM
TGI [7]: > 100 µM
TGI [10]: > 100 µM
TGI [9]: > 100 µM

CCOc1cc(-c2ccc[nH]2)[nH]c1/C=C1\N=C(C)C(C(=O)OC)=C1C
GI50 [1]: 0.183 µM
TGI [1]: 1.57 µM
GI50 [2]: 34.4 nM
TGI [2]: 1.16 µM
GI50 [3]: 25.2 nM
TGI [3]: 0.143 µM
GI50 [4]: 0.0185 µM
TGI [4]: 0.044 µM
GI50 [5]: 32.1 nM
TGI [5]: 1.55 µM
GI50 [6]: 55.1 nM
TGI [6]: 0.939 µM
GI50 [7]: 216 nM
TGI [7]: 4.3 µM
GI50 [8]: 59 nM
TGI [8]: 0.968 µM
GI50 [9]: < 0.0133 µM
TGI [9]: 0.0293 µM

CC1=C(C(=O)Nc2ccc(Cl)c(Cl)c2)C(c2ccccc2O)NC(=O)N1 (stereo unspecified)
GI50 [1]: > 50 µM
TGI [1]: > 50 µM
GI50 [2]: > 50000 nM
TGI [2]: > 50 µM
GI50 [3]: > 50000 nM
TGI [3]: > 50 µM
GI50 [4]: 21.3 µM
TGI [4]: > 50 µM
GI50 [5]: > 50000 nM
TGI [5]: > 50 µM
GI50 [6]: > 50000 nM
TGI [6]: > 50 µM
GI50 [8]: 43700 nM
TGI [8]: > 50 µM
GI50 [10]: 39.9 µM
TGI [10]: > 50 µM
GI50 [9]: 22.5 µM
TGI [9]: > 50 µM

CCCCCCCCCCCCOP(N)(=O)OCCCCCCCCCCCC
TGI [1]: > 100 µM
TGI [2]: > 100 µM
TGI [3]: > 100 µM
TGI [5]: > 100 µM
TGI [6]: > 100 µM
TGI [7]: > 100 µM
TGI [8]: > 100 µM
TGI [10]: > 100 µM

N#CC1C=Cc2ccccc2N1C(=O)Oc1ccccc1 (stereo unspecified)
TGI [2]: > 100 µM
TGI [3]: > 100 µM
TGI [4]: > 100 µM
TGI [5]: > 100 µM
TGI [6]: > 100 µM
TGI [7]: > 100 µM
TGI [8]: > 100 µM
TGI [10]: > 100 µM
TGI [9]: > 100 µM

CC(C)C(=O)Oc1cc2c(=O)oc3c(OC(=O)C(C)C)c(OC(=O)C(C)C)cc4c(=O)oc(c1OC(=O)C(C)C)c2c34
TGI [1]: > 100 µM
TGI [2]: > 100 µM
TGI [3]: > 100 µM
TGI [4]: > 100 µM
TGI [5]: > 100 µM
TGI [6]: > 100 µM
TGI [7]: > 100 µM
TGI [8]: > 100 µM
TGI [9]: > 100 µM

Cc1nc(-n2nc(-c3ccccc3)cc2-c2ccccc2)sc1C(/C=C/c1ccc([N+](=O)[O-])cc1)=N/NC(=O)c1ccncc1
TGI [1]: > 100 µM
TGI [2]: > 100 µM
TGI [3]: 90.4 µM
TGI [4]: 56.9 µM
TGI [5]: > 100 µM
TGI [6]: > 100 µM
TGI [7]: > 100 µM
TGI [8]: 41.5 µM
TGI [9]: 63.7 µM

Cc1cc([N+](=O)[O-])c(C)c(Br)c1C
TGI [1]: > 100 µM
TGI [2]: > 100 µM
TGI [3]: > 100 µM
TGI [4]: > 100 µM
TGI [5]: > 100 µM
TGI [6]: > 100 µM
TGI [7]: > 100 µM
TGI [8]: > 100 µM
TGI [9]: > 100 µM
